Counter-ions that a name gives are not always drawn. Like-named read-outs stand apart in the source and are kept apart here.

Results on 15 molecules are retold here after patent US8815919B2, “Oxadiazole derivatives” (Merck Serono SA, priority 2009, dated 2014).

Test [1] concerns the target T1, S1P1 (Homo sapiens, UniProt P21453). Briefly: Receptor binding assay, [33P]sphingosine 1-phosphate competition, S1P1 membranes, WGA SPA beads. The method, then:
(§1) Membranes were prepared from CHO cells expressing S1P1 or S1P3 for use in ligand and […] binding studies. Cells were suspended in 50 mM TRIS, pH 7.4, 2 mM EDTA, 250 mM Sucrose (buffer A) and 1× Complete protease inhibitor cocktail (Roche), and disrupted at 4° C. by N2 decompression using a cell disruption bomb (Parr Instrument). Following centrifugation at 1000 RPM for 10 min at 4° C., the supernatant was diluted (2×) in buffer A and centrifuged again at 19000 RPM for 75 min at 4° C. The pellet was then suspended in 10 mM HEPES, pH 7.4, 1 mM EDTA, 250 mM Sucrose (Buffer B), and 1× Complete EDTA-free protease inhibitor cocktail and homogenized using a potter. Membranes were flash frozen in liquid N2 and stored at −80° C.
(§2) Receptor binding assay: [33P]sphingosine 1-phosphate (3000 Ci/mmol; American Radiolabeled Chemicals, Inc.) was added to test compounds in 20% DMSO by competition. Membranes and WGA SPA beads (GE Healthcare) were added to give a final volume of 100 μl in 96-well plates or 50 μl in 384-well plates with assay concentrations of […] [33P]sphingosine 1-phosphate (respectively for S1P1 or S1P3), 50 mM HEPES, pH 7.5, 5 mM MgCl2, 100 mM NaCl, 0.4% fatty acid-free BSA, 1-5 μg/well of proteins in 96-well plates vs 0.6-1 μg/well of proteins in 384-well plates and 100 μg/well of WGA SPA beads in 96-well plates vs 75 μg/well of WGA SPA beads in 384-well plates. Binding was performed for 60 min at RT on a shaker and bound radioactivity was measured on a PerkinElmer 1450 MicroBeta counter. Triplicate samples were averaged and normalized as percentage of inhibition relative to total binding (only DMSO in well) and nonspecific binding (1000-fold excess of unlabeled S1P). Binding data were analyzed using the GraphPad Prism program or Genedata software.
Target sequence in this assay (P21453 whole entry, species assumed): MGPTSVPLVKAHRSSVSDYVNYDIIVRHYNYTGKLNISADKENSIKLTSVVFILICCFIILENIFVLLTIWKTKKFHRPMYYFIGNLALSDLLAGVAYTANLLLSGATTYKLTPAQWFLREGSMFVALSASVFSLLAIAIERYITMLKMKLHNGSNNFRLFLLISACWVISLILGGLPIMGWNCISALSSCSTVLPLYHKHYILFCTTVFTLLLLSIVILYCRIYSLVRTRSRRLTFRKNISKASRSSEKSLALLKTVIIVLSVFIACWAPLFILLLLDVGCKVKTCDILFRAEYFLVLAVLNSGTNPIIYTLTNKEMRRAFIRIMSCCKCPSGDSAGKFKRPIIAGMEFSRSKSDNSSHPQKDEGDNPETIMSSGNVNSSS

Test [2] concerns the target S1P3 (Homo sapiens, UniProt Q99500). Description: Receptor binding assay, [33P]sphingosine 1-phosphate competition, S1P3 membranes, WGA SPA beads. Here is the method: as §1, §2
The target of test [3] is T1, S1P1. Briefly: S1P1 internalization assay in S1P1-U2OS cells (S1P1-EGFP), cell imaging. Type of test: cell-based. On the set-up: host or cells: U2OS (human bone osteosarcoma epithelial cells), CMV promoter, geneticin selection. The settings on record: 1 hour incubation. Here is the method:
Cellular functional assays: Internalization of Sphingosine-1-phosphate receptor 1 (S1P1) in a human Cell line (U2OS) in a 384-well format using a Cell Imaging analysis. • Jo, E.; Sanna, M. G.; Gonzalez-Cabrera, P. J.; Thangada, S.; Tigyi, S.; Osborne, D. A.; Hla, T.; Parrill, A. L.; Rosen, H. Chem. Biol. 2005, 12, 703
The S1P1 internalization assay was performed in 384 well plates (Corning® 384 black with clear bottom 3712) using S1P1-U2OS cells from Biolmage (C039A), a human epithelial cell line (Human Bone Osteosarcoma Epithelial Cells). These cells expressed the human S1P1 Receptor fused to the green fluorescent protein (EGFP). A standard CMV promoter (cytomegalovirus promoter) controls the expression of S1P1-EGFP and continuous expression was maintained by addition of geneticin to the culture medium.
S1P1 Receptor desensitization induced the internalization of the membrane-localized S1P1-EGFP fusion protein to endosomes, which can be monitored by cell imaging analysis. The cells are plated in low serum medium (Dulbecco's Modified Eagle Medium (DMEM) with Glutamax-1 and high glucose, 1% Penicillin/Streptomycin, 1% Fetal Calf Serum (FCS), 0.5 mg/ml Geneticin) overnight.
The next day, S1P1-U2OS cells are incubated in 20 μl serum free medium (DMEM with Glutamax-1 and high glucose, 0.1% of fatty-acid free Bovin Serum Albumin (BSA), 10 mM, N′-2-Hydroxyethylpiperazine-N′-2 ethanesulphonic acid (HEPES) 1M) for 2 hours at 37° C./5% CO2. The cells are then treated with 4 μl compounds/agonists (6×/3% DMSO) for a total volume of 24 μl, and plates are incubated for 1 hour at 37° C./5% CO2.
S1P1-U2OS cells are fixed with 25 μl Paraformaldehyde 8% and stained with Hoechst 33345 dye (1:1000) for 20 minutes.
They were then washed 3 times with Phosphate Buffered Saline (PBS) and plates are sealed. The internalization of the receptor S1P1-EGFP is measured on Cellomics by calculating the “spot count per object” (“object” corresponds to nuclear and “spot” corresponds to S1P1-EGFP receptor). Internalization data were observed thanks to vHCS View and analyzed using Genedata® software.
Target sequence in this assay (P21453 whole entry): as the sequence (P21453 whole entry, species assumed) above

The mark [4] stands for this setting: 96 well-plate, read-out: S1P1 binding Ki (M) (96 well-plate).
Setting [5] is: 384 well-plate, read-out: S1P1 binding Ki (M) (384 well-plate).
Where [6] appears, read: 96 well-plate, read-out: S1P3 binding Ki (M) (96 well-plate).
Setting [7] is: 384 well-plate, read-out: S1P3 binding Ki (M) (384 well-plate).

Sequence of S1P3 (Q99500 whole entry, species assumed): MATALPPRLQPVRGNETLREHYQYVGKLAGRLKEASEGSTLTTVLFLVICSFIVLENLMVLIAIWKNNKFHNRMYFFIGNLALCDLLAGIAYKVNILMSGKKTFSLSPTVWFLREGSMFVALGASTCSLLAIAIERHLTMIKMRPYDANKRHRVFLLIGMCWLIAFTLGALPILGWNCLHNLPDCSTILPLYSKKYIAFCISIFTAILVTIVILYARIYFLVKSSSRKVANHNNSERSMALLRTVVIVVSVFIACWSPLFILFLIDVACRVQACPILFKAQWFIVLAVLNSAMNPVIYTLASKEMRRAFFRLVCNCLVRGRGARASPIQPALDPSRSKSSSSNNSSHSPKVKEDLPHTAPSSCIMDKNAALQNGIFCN

Take `CC1CCCCN1c1ccc(-c2nc(-c3ccc(CN(C)CC(=O)O)c(F)c3)no2)cc1C(F)(F)F` (centres unmarked) [Example 85, N-(2-fluoro-4-{5-[4-(2-methylpiperidin-1-yl)-3-(trifluoromethyl)phenyl]-1,2,4-oxadiazol-3-yl}benzyl)-N-methylglycine, dihydrochloride salt]: the inhibition constant Ki (as a rule, a dissociation constant, usually derived from enzyme kinetics or from competition with a known ligand) is 3.16e-10 M in test [1] (setting [4]), 9.74e-10 M in test [1] (setting [5]) and 1.77e-07 M in test [2] (setting [6]). The EC50 – broadly, the concentration at which the effect is half-maximal – in test [3] was found to be 13.6 nM.

Consider `COCc1cc(-c2nc(-c3cccc(CCN(C)CC(=O)O)c3)no2)ccc1-c1ccccc1C` [Example 86, [(2-{3-[5-(2-Methoxymethyl-2′-methyl-biphenyl-4-yl)-[1,2,4]oxadiazol-3-yl]-phenyl}-ethyl)-methyl-amino]-acetic acid], for which the Ki in test [1] (setting [4]) was 1.46e-10 M; in test [1] (setting [5]) it was 4.97e-10 M; in test [2] (setting [6]), 3.18e-08 M. Also, the EC50 in test [3] came to 4.98 nM.

With `COCc1cc(-c2nc(-c3cc(F)c(CNCC(=O)O)c(F)c3)no2)ccc1-c1ccccc1C` [Example 147, 2-(2,6-difluoro-4-(5-(2-(methoxymethyl)-2′-methylbiphenyl-4-yl)-1,2,4-oxadiazol-3-yl)benzylamino)acetic acid, hydrochloride salt], the Ki in test [1] (setting [5]) is 6.95e-10 M; in test [2] (setting [7]), 1.35e-07 M. Besides, in test [3], the EC50 was 1.54 nM.

For the molecule `COCc1cc(-c2nc(-c3cccc(CN(CCO)CCC(=O)O)c3)no2)ccc1-c1ccccc1C` [Example 66, N-(2-hydroxyethyl)-N-(3-{5-[2-(methoxymethyl)-2′-methylbiphenyl-4-yl]-1,2,4-oxadiazol-3-yl}benzyl)-beta-alanine, hydrochloride salt], the Ki in test [1] (setting [4]) was determined as 5.36e-10 M; in test [1] (setting [5]) it was 2.42e-09 M; in test [2] (setting [7]), 1.4e-06 M. Moreover, the EC50 in test [3] is 44.9 nM.

Consider `COCc1cc(-c2nc(-c3cc(CN(C)CC(=O)O)cc(F)c3F)no2)ccc1-c1ccccc1C` [Example 126, N-(3,4-difluoro-5-{5-[2-(methoxymethyl)-2′-methylbiphenyl-4-yl]-1,2,4-oxadiazol-3-yl}benzyl)-N-methylglycine, hydrochloride salt], for which the inhibition constant Ki was determined as 2.88e-09 M in test [1] (setting [5]) and 6.55e-07 M in test [2] (setting [7]). The molecule also returned an EC50 in test [3] of 47 nM.

Take `COCc1cc(-c2nc(-c3ccc(CN(C)CC(=O)O)c(F)c3)no2)ccc1-c1ccccc1F` [Example 55, N-(2-fluoro-4-{5-[2′-fluoro-2-(methoxymethyl)biphenyl-4-yl]-1,2,4-oxadiazol-3-yl}benzyl)-N-methylglycine, hydrochloride salt]: the Ki in test [1] (setting [4]) was 1.59e-10 M; in test [1] (setting [5]) it was 5.23e-10 M; in test [2] (setting [6]), 7.12e-08 M; in test [2] (setting [7]), 9.2e-08 M. A half-maximal response in test [3] (EC50) required 8.46 nM.

With `COCc1cc(-c2nc(-c3ccc(CN(C)CC(=O)O)c(Br)c3)no2)ccc1-c1ccccc1C` [Example 53, N-(2-bromo-4-{5-[2-(methoxymethyl)-2′-methylbiphenyl-4-yl]-1,2,4-oxadiazol-3-yl}benzyl)-N-methylglycine, hydrochloride salt], the Ki stood at 2.14e-10 M in test [1] (setting [4]) and 7e-07 M in test [2] (setting [6]). In test [3], this molecule displayed an EC50 of 7.61 nM.

Turning to `COCc1cc(-c2nc(-c3ccc(CN(C)CC(=O)O)cc3)no2)ccc1-c1ccccc1C` [Example 51, N-(4-{5-[2-(methoxymethyl)-2′-methylbiphenyl-4-yl]-1,2,4-oxadiazol-3-yl}benzyl)-N-methylglycine, hydrochloride salt], the inhibition constant (Ki) came out at 3.38e-10 M in test [1] (setting [4]), 2.1e-09 M in test [1] (setting [5]), 7.32e-07 M in test [2] (setting [6]) and 9.17e-07 M in test [2] (setting [7]). In addition, in test [3], the 50% effective concentration (EC50) worked out at 4.92 nM.

Turning to `COCc1cc(-c2nc(-c3cccc(CC(=O)N(C)CC(=O)O)c3)no2)ccc1-c1ccccc1C` [Example 44, N-[(3-{5-[2-(methoxymethyl)-2′-methylbiphenyl-4-yl]-1,2,4-oxadiazol-3-yl}phenyl)acetyl]-N-methylglycine], the Ki is 1.71e-09 M in test [1] (setting [4]), 1.02e-08 M in test [1] (setting [5]) and 1.31e-07 M in test [2] (setting [7]). The same molecule registered an EC50 in test [3] of 115 nM.

As for `COCc1cc(-c2nc(-c3ccc(CN(C)CC(=O)O)cc3)no2)ccc1-c1cccc(F)c1Cl` [Example 122, N-(4-{5-[2′-chloro-3′-fluoro-2-(methoxymethyl)biphenyl-4-yl]-1,2,4-oxadiazol-3-yl}benzyl)-N-methylglycine, hydrochloride salt], the Ki in test [1] (setting [5]) was 1.31e-09 M; in test [2] (setting [7]), 2.5e-06 M. In test [3], this molecule displayed an EC50 of 5.1 nM.

For the molecule `COCc1cc(-c2nc(-c3cccc(CN(C)CC(=O)O)c3)no2)ccc1-c1ccc(F)c(F)c1C` [Example 42, N-(3-{5-[3′,4′-difluoro-2-(methoxymethyl)-2′-methylbiphenyl-4-yl]-1,2,4-oxadiazol-3-yl}benzyl)-N-methylglycine, hydrochloride salt], the inhibition constant Ki worked out at 1.82e-10 M in test [1] (setting [4]), 1.7e-09 M in test [1] (setting [5]) and 2.75e-07 M in test [2] (setting [7]). Further, the half-maximal effective concentration (EC50) in test [3] stood at 18.3 nM.

Regarding `COCc1cc(-c2nc(-c3ccc(CN(C)CC(=O)O)cc3F)no2)ccc1-c1ccccc1C` [Example 146, 2-((3-fluoro-4-(5-(2-(methoxymethyl)-2′-methylbiphenyl-4-yl)-1,2,4-oxadiazol-3-yl)benzyl)(methyl)amino)acetic acid, hydrochloride salt], the figures for the Ki in test [1] (setting [5]) and in test [2] (setting [7]) were 9.36e-10 M and 3.68e-07 M, respectively. Moreover, in test [3], a half-maximal response (EC50) required 33.6 nM.

For `Cc1ccccc1-c1ccc(-c2nc(-c3ccc(CNCCCC(=O)O)cc3)no2)cc1C(F)(F)F` [Example 142, 4-[(4-{5-[2′-methyl-2-(trifluoromethyl)biphenyl-4-yl]-1,2,4-oxadiazol-3-yl}benzyl)amino]butanoic acid], the Ki in test [1] (setting [5]) worked out at 5.49e-10 M; in test [2] (setting [7]), 3.73e-07 M. Besides, the EC50 in test [3] amounted to 0.802 nM.

As to `COCc1cc(-c2nc(-c3ccc(CN(C)CC(=O)O)cc3C)no2)ccc1-c1ccccc1C` [Example 102, 2-((4-(5-(2-(methoxymethyl)-2′-methylbiphenyl-4-yl)-1,2,4-oxadiazol-3-yl)-3-methylbenzyl)(methyl)amino)acetic acid], the inhibition constant (Ki) in test [1] (setting [5]) was found to be 1.44e-09 M; in test [2] (setting [6]), 2.9e-07 M; in test [2] (setting [7]), 6.99e-07 M. Moreover, the concentration giving a half-maximal response (EC50) in test [3] stood at 13.7 nM.

With `COc1cc(-c2noc(-c3ccc(N4CCCCC4C)c(C(F)(F)F)c3)n2)ccc1CN(C)CC(=O)O` (centres unmarked) [Example 80, 2-((2-methoxy-4-(5-(4-(2-methylpiperidin-1-yl)-3-(trifluoromethyl)phenyl)-1,2,4-oxadiazol-3-yl)benzyl)(methyl)amino)acetic acid, hydrochloride salt], the inhibition constant Ki came out at 1.6e-09 M in test [1] (setting [4]), 3.12e-09 M in test [1] (setting [5]) and 2.79e-06 M in test [2] (setting [6]). The molecule also returned a 50% effective concentration (EC50) in test [3] of 47 nM.
